Data from US20210379094A1, “METHOD FOR REDUCING DRUG-INDUCED NEPHROTOXICITY” (Yissum Research Development Company of the Hebrew …, priority 2019, published 2021).
Where “and” joins values, the source holds several entries; their conditions need not be identical. Identical values can stand only once.

Assays:
Type in all cases: cell-based, human
[1] = system: HK-2 proximal tubule cells; test: Glucose accumulation assay (2-NDBG); details: for 2-NBDG fluorescence: concentrations a thousand-fold under the threshold of cellular damage
Protocol: To monitor glucose uptake in cells, a fluorescent analog of glucose 2-(N-(7-Nitrobenz-2-oxa-1,3-diazol-4-yl) Amino)-2-Deoxyglucose (2-NDBG), (Invitrogen, CA, USA) was used. After overnight drug exposure, the medium was removed and replaced with Dulbecco's Phosphate Buffered Saline (Sigma, USA) with 17 mM and 6 mM of 2-NDBG to match glucose concentration of HK-2 and RPTEC culture medium respectively, incubated for 1 hour at 37° C., 5% CO2 before imaging. 2-NDBG is taken up in mammalian cells by GLUT-2, if its activity or shuttling is disturbed, 2-NDBG will accumulate in the cells, showing higher green intensity.

[2] = system: HK-2 organoids; test: Metabolic flux analysis (glucose, lactate, glutamine, oxygen) of perfused organoids; details: for ATP production drop / Lipogenesis increase / glycolysis drop: 31 hours exposure to sub-toxic concentration (12.5 μM Cyclosporine A, 32 μM Cisplatin, 32 mM Gentamicin)
Protocol: Amperometric glucose and lactate sensors were purchased from Innovative Sensor Technology (IST, Switzerland). […] Both sensors produce H2O2 in amounts proportional to the measured metabolite, which is detected with platinum electrodes under polarized condition. […] Measurements were carried out and calibrated to sensitivity decrease by on-chip potentiostat (IST, Switzerland). Glucose uptake, oxygen uptake, and lactate production rates were measured by calculating the change in metabolite concentration between the bioreactor in- and outflow as a function of perfusion rate and cell number. Metabolic rates were calculated assuming negligible contribution to oxygen uptake by fatty acid oxidation and enzymatic activity. […] Based on these assumptions, oxidative phosphorylation flux was calculated by dividing the oxygen uptake rate by six. It was estimated that 32 ATP molecules were generated by complete oxidation of one molecule of glucose. Glycolysis flux was calculated by dividing lactate production rate by two, with maximal rate defined by glucose uptake rate minus the oxidative phosphorylation flux. ATP production in glycolysis was estimated to be two molecules per molecule of glucose. It was assumed that any glucose left over was directed toward lipogenesis, because the contribution of pentose phosphate pathway in non-proliferating cells is minor. […] ATP production in glutaminolysis was estimated to be three molecules per molecule of lactate generated.

[3] = system: HK-2 organoids; test: Real-time oxygen uptake / time to onset in perfused organoid bioreactor; details: for Oxygen uptake drop: after 33 hours continuous perfusion, 12.5 μM Cyclosporine A, 32 μM Cisplatin, 32 mM Gentamicin
Protocol: Polydimethylsiloxane (PDMS) microwell inserts were sterilized with 70% EtOH and 30-min exposure to UV light prior to cell seeding. Kidney cells were trypsinized, counted, and centrifuged at 300×g for 5 min at 4° C. […] Then, 1.35 μl of Matrigel® suspension containing cells and oxygen-sensing beads was seeded in each well using […] M P10M (Gilson, UK). The inoculated microwell insert was then incubated for 30 min at 37° C. to polymerize the gel. Following polymerization, the insert was immersed in 3 ml of cell culture medium and incubated overnight at 37° C. prior to being sealed in the bioreactor housing. Bioreactors were then placed in a climate control chamber on an IX81 fluorescence microscope (Olympus, Japan). Bioreactors were continuously perfused with cell culture medium noted above supplemented with 10 mM HEPES and 1% DMSO at a flow rate of 5 μL/min. Drug induction started upon metabolic stabilization. Stabilization was assessed by daily measurements of oxygen and metabolites.
Real-time oxygen measurements were performed optically using on-chip lifetime-based luminescence quenching (LBLQ). […] Oxygen acts as a quencher, leading to a decrease in decay time and signal intensity with increasing concentration. We chose to measure decay time, rather than signal intensity, as it is not sensitive to changes in probe concentration or excitation intensity over the course of the experiment. […] To accurately measure decay time, we chose phase modulation in which sinusoidal amplitude-modulated light is shifted in phase due to oxygen quenching. […] Measurements were carried out by averaging five consecutive 4-s exposures. Measurements were taken every 15 min.
Bioreactors were perfused with different concentrations of compounds dissolved in culture medium. […] TC50 concentrations were determined using MATLAB by sigmoidal curve fitting. […] Time to onset was analyzed by MATLAB based on LPF and trend assessment.

[4] = system: HK-2; test: Reduction of toxicity (rescue) experiment with glucose transport inhibitors, LIVE/DEAD viability; details: for cell viability / cell death: cultures treated with nephrotoxic drug plus inhibitor vs drug alone
Protocol: (§1) Empagliflozin (5 μM) a potent SGLT2 inhibitor, phloretin (1 mM) inhibits the apicobasal shuttling of the GLUT2, phlorizin (200 μM) is a mild inhibitor of SGLT1 and SGLT2. When all three inhibitors were used together, the mix was referred to as a cocktail. All experiments were performed on a 96 well plate, in triplicates with controls with no drugs, or inhibitors alone. First, cells were incubated for 1 hour with inhibitors alone and then drugs were added with inhibitors for 24 hours for LIVE DEAD assay or 48 hours for Lipid accumulation (LipidTox Assay). Cell viability was determined using LIVE/DEAD Cytotoxicity kit (Molecular Probes, USA) according to manufacturer directions. Briefly, cultures were incubated for 30 min with 2 μM calcein AM and 4 μM ethidium homodimer-1. Live cells were positive for green fluorescence due to hydrolysis of the acetoxymethyl ester group by intracellular esterases. Dead cells were positive for red fluorescence due to ethidium homodimer-1 binding intracellular DNA, possible in […]. Cellular viability was expressed as live over dead ratio and normalized based on negative (DMSO/DDW/PBS) controls. Fluorescence micrographs were analyzed for total fluorescence using ImageJ for 9 repeats for each sample. Error bars indicate ±SEM.
(§2) After staining, plates were mounted on the fluorescent microscope for quantification. Rescue was achieved when significant percentage of live cells and/or a reduced amounts of dead cells was observed as compared with cells treated with the drug only.

[5] = system: HK-2; test: Reduction of toxicity (rescue) experiment with glucose transport inhibitors, lipid accumulation (LipidTox); details: for lipotoxicity: cultures treated with the three nephrotoxic compounds
Protocol: Quantification of lipid accumulation was performed using HCS LipidTOX™ Phospholipidosis and Steatosis Detection Kit (ThermoFisher). Briefly, HK-2 and RPTEC cells were incubated with different concentrations of compounds dissolved in culture medium and 1× Phospholipidosis Detection Reagent for 48 h, subsequently fixed in 4% PFA. Cells were then stained with 1× Green LipidTOX™ for neutral lipids for 45 min and counterstained with 1 μg/mL Hoechst 33258. Staining intensity was normalized to number of Hoechst 33258 positive nuclei.
as §1, §2

[6] = organoids under continuous perfusion

N.N.[Cl][Pt][Cl] [Cisplatin]
2-NBDG fluorescence [1]: doubles
ATP production drop [2]: 53%
Lipogenesis increase [2]: 57.6% and 57%
glycolysis drop [2]: 98.4% and 98%
Overall glutamine uptake ([2]; during exposure): remained constant
Time to onset (TTO) of response ([3]; HK-2 organoids, increasing concentrations, dose-dependent decrease): 13 to 22 h
Oxygen uptake drop [3]: 36%
time of induced damage following exposure [3, 6]: at least 14 hours

OC[C@H]1O[C@@H](c2ccc(Cl)c(Cc3ccc(O[C@H]4CCOC4)cc3)c2)[C@H](O)[C@@H](O)[C@@H]1O [Empagliflozin]
cell viability / cell death [4]: restores cell viability
lipotoxicity [5]: significantly alleviates lipotoxicity

O=C(CCc1ccc(O)cc1)c1c(O)cc(O)cc1O [Phloretin]
cell viability / cell death [4]: restores cell viability
lipotoxicity [5]: significantly alleviates lipotoxicity

O=C(CCc1ccc(O)cc1)c1c(O)cc(O)cc1O[C@@H]1O[C@H](CO)[C@@H](O)[C@H](O)[C@H]1O [Phlorizin]
increase in cell viability ([4]; CsA treated cultures, compared to cells treated with CsA alone): 2 fold
cell viability / cell death [4]: restores cell viability
decrease in phospholipids content ([5]; CsA treated cultures, compared to CsA alone): 2 fold
lipotoxicity [5]: significantly alleviates lipotoxicity

Gentamicin
Relative 2-NDBG accumulation, increase in glucose content ([1]; HK2 cells, sub-toxic 15 h exposure): 2 fold
2-NBDG fluorescence [1]: doubles
lactate over glucose ratio drop ([2]; 32 mM Gentamicin, after 10 h exposure): 85%
ATP production drop [2]: 29%
Lipogenesis increase [2]: 438%
glycolysis drop [2]: 65%
glucose uptake increase ([2]; after 31 hours): +196%
lactate release decrease ([2]; after 31 hours): −65.2%
Glutamine uptake change ([2]; at 31 hours): +14.1%
Glutamine uptake change ([2]; at approximately 16 hours): +76%
shift of organoid metabolism ([2]; bioreactor studies): significantly shift proximal tubular organoid metabolism towards lipogenesis
Oxygen uptake drop [3]: 10%
oxygen response upon perfusion [3, 6]: acute jump in oxygen uptake within an hour after exposure
viability at sub-toxic concentration ([3]; sub-toxic concentration used for flux analysis): > 95%
